# Measured values taken from PubChem BioAssay AID1745844 (Carcinogenic Potency Database (CPDB), 2022).
# Active and inactive are the calls of the source. How the calls were made is not given here.
# System: rodent lifetime carcinogenesis bioassay, tumor incidence TD50
# Test: chronic cancer bioassays in animals – CPDB, compiled studies (AID 1745844)
# Conditions: rat, in feed
structure (smiles),measurement,setting,value
OCC(CO)(CBr)CBr,TD50,"strain Fischer 344, males, site: kidney, lesion: tubule adenoma, dosed 12 weeks, study length 103 weeks",970 mg/kg/day
same,TD50,"strain Fischer 344, males, site: kidney, lesion: tubule adenoma, dosed 104 weeks, study length 105 weeks",1550 mg/kg/day
same,TD50,"strain Fischer 344, males, site: liver, lesion: hepatocellular adenoma + hepatoblastoma + hepatocellular carcinoma, dosed 12 weeks, study length 103 weeks",702 mg/kg/day
same,TD50,"strain Fischer 344, males, site: liver, lesion: hepatocellular adenoma + hepatoblastoma + hepatocellular carcinoma, dosed 104 weeks, study length 105 weeks",1840 mg/kg/day
same,TD50,"strain Fischer 344, males, site: lung, lesion: alveolar/bronchiolar adenoma + alveolar/bronchiolar carcinoma, dosed 12 weeks, study length 103 weeks",52.4 mg/kg/day
same,TD50,"strain Fischer 344, males, site: lung, lesion: alveolar/bronchiolar adenoma + alveolar/bronchiolar carcinoma, dosed 104 weeks, study length 105 weeks",729 mg/kg/day
same,TD50,"strain Fischer 344, males, site: lung, lesion: alveolar/bronchiolar adenoma, dosed 12 weeks, study length 103 weeks",73.1 mg/kg/day
same,TD50,"strain Fischer 344, males, site: lung, lesion: alveolar/bronchiolar carcinoma, dosed 12 weeks, study length 103 weeks",327 mg/kg/day
same,TD50,"strain Fischer 344, males, site: lung, lesion: alveolar/bronchiolar carcinoma, dosed 104 weeks, study length 105 weeks",1300 mg/kg/day
same,TD50,"strain Fischer 344, males, site: lung, lesion: squamous-cell carcinoma, dosed 12 weeks, study length 103 weeks",484 mg/kg/day
same,TD50,"strain Fischer 344, males, site: mammary gland, lesion: adenoma + fibroadenoma, dosed 104 weeks, study length 105 weeks",262 mg/kg/day
same,TD50,"strain Fischer 344, males, site: mammary gland, lesion: fibroadenoma, dosed 12 weeks, study length 103 weeks",78.3 mg/kg/day
same,TD50,"strain Fischer 344, males, site: mammary gland, lesion: fibroadenoma, dosed 104 weeks, study length 105 weeks",275 mg/kg/day
same,TD50,"strain Fischer 344, males, site: palate + tongue, lesion: squamous-cell carcinoma + squamous-cell papilloma, dosed 12 weeks, study length 103 weeks",24 mg/kg/day
same,TD50,"strain Fischer 344, males, site: palate + tongue, lesion: squamous-cell papilloma, dosed 12 weeks, study length 103 weeks",24.6 mg/kg/day
same,TD50,"strain Fischer 344, males, site: palate + tongue, lesion: squamous-cell papilloma, dosed 104 weeks, study length 105 weeks",300 mg/kg/day
same,TD50,"strain Fischer 344, males, site: palate, lesion: squamous-cell papilloma, dosed 12 weeks, study length 103 weeks",115 mg/kg/day
same,TD50,"strain Fischer 344, males, site: palate, lesion: squamous-cell papilloma, dosed 104 weeks, study length 105 weeks",808 mg/kg/day
same,TD50,"strain Fischer 344, males, site: pancreas, lesion: acinar-cell adenoma, dosed 12 weeks, study length 103 weeks",193 mg/kg/day
same,TD50,"strain Fischer 344, males, site: pancreas, lesion: acinar-cell adenoma, dosed 104 weeks, study length 105 weeks",516 mg/kg/day
same,TD50,"strain Fischer 344, males, site: pancreatic islets, lesion: islet-cell adenoma + islet-cell carcinoma, dosed 104 weeks, study length 105 weeks",208 mg/kg/day
same,TD50,"strain Fischer 344, males, site: pituitary gland, lesion: pars distalis adenoma + pars distalis carcinoma, dosed 104 weeks, study length 105 weeks",462 mg/kg/day
same,TD50,"strain Fischer 344, males, site: pituitary gland, lesion: pars distalis adenoma, dosed 12 weeks, study length 103 weeks",67.3 mg/kg/day
same,TD50,"strain Fischer 344, males, site: pituitary gland, lesion: pars distalis adenoma, dosed 104 weeks, study length 105 weeks",493 mg/kg/day
same,TD50,"strain Fischer 344, males, site: preputial gland, lesion: adenoma + carcinoma, dosed 12 weeks, study length 103 weeks",39 mg/kg/day
same,TD50,"strain Fischer 344, males, site: preputial gland, lesion: adenoma + carcinoma, dosed 104 weeks, study length 105 weeks",793 mg/kg/day
same,TD50,"strain Fischer 344, males, site: preputial gland, lesion: adenoma, dosed 12 weeks, study length 103 weeks",22.8 mg/kg/day
same,TD50,"strain Fischer 344, males, site: preputial gland, lesion: adenoma, dosed 104 weeks, study length 105 weeks",819 mg/kg/day
same,TD50,"strain Fischer 344, males, site: seminal vesicle, lesion: adenoma + carcinoma, dosed 12 weeks, study length 103 weeks",453 mg/kg/day
same,TD50,"strain Fischer 344, males, site: skin, lesion: basal-cell adenoma + basal-cell carcinoma + keratoacanthoma + squamous-cell carcinoma + squamous-cell papilloma + trichoepitheliom, dosed 104 weeks, study length 105 weeks",166 mg/kg/day
same,TD50,"strain Fischer 344, males, site: skin, lesion: basal-cell adenoma + basal-cell carcinoma + trichoepithelioma, dosed 104 weeks, study length 105 weeks",720 mg/kg/day
same,TD50,"strain Fischer 344, males, site: skin, lesion: basal-cell adenoma + keratoacanthoma + squamous-cell carcinoma + squamous-cell papilloma + trichoepithelioma, dosed 12 weeks, study length 103 weeks",16.9 mg/kg/day
same,TD50,"strain Fischer 344, males, site: skin, lesion: basal-cell adenoma + trichoepithelioma, dosed 12 weeks, study length 103 weeks",64.6 mg/kg/day
same,TD50,"strain Fischer 344, males, site: skin, lesion: basal-cell adenoma, dosed 12 weeks, study length 103 weeks",82.3 mg/kg/day
same,TD50,"strain Fischer 344, males, site: skin, lesion: basal-cell adenoma, dosed 104 weeks, study length 105 weeks",1530 mg/kg/day
same,TD50,"strain Fischer 344, males, site: skin, lesion: keratoacanthoma, dosed 12 weeks, study length 103 weeks",42.5 mg/kg/day
same,TD50,"strain Fischer 344, males, site: skin, lesion: keratoacanthoma, dosed 104 weeks, study length 105 weeks",235 mg/kg/day
same,TD50,"strain Fischer 344, males, site: skin, lesion: squamous-cell carcinoma + squamous-cell papilloma, dosed 12 weeks, study length 103 weeks",21.7 mg/kg/day
same,TD50,"strain Fischer 344, males, site: skin, lesion: squamous-cell carcinoma + squamous-cell papilloma, dosed 104 weeks, study length 105 weeks",1130 mg/kg/day
same,TD50,"strain Fischer 344, males, site: skin, lesion: squamous-cell papilloma, dosed 12 weeks, study length 103 weeks",46.2 mg/kg/day
same,TD50,"strain Fischer 344, males, site: skin, lesion: squamous-cell papilloma, dosed 104 weeks, study length 105 weeks",1130 mg/kg/day
same,TD50,"strain Fischer 344, males, site: subcutaneous tissue, lesion: fibroma, dosed 12 weeks, study length 103 weeks",111 mg/kg/day
same,TD50,"strain Fischer 344, males, site: subcutaneous tissue, lesion: fibroma, dosed 104 weeks, study length 105 weeks",271 mg/kg/day
same,TD50,"strain Fischer 344, males, site: subcutaneous tissue, lesion: fibrosarcoma + fibroma + sarcoma, dosed 12 weeks, study length 103 weeks",87.3 mg/kg/day
same,TD50,"strain Fischer 344, males, site: subcutaneous tissue, lesion: fibrosarcoma + fibroma + sarcoma, dosed 104 weeks, study length 105 weeks",221 mg/kg/day
same,TD50,"strain Fischer 344, males, site: subcutaneous tissue, lesion: fibrosarcoma + sarcoma, dosed 12 weeks, study length 103 weeks",654 mg/kg/day
same,TD50,"strain Fischer 344, males, site: subcutaneous tissue, lesion: fibrosarcoma + sarcoma, dosed 104 weeks, study length 105 weeks",1080 mg/kg/day
same,TD50,"strain Fischer 344, males, site: subcutaneous tissue, lesion: sarcoma, dosed 104 weeks, study length 105 weeks",1550 mg/kg/day
same,TD50,"strain Fischer 344, males, site: testis, lesion: interstitial-cell adenoma, bilateral + interstitial-cell adenoma, dosed 12 weeks, study length 103 weeks",5.94 mg/kg/day
same,TD50,"strain Fischer 344, males, site: testis, lesion: interstitial-cell adenoma, bilateral + interstitial-cell adenoma, dosed 104 weeks, study length 105 weeks",66.5 mg/kg/day
same,TD50,"strain Fischer 344, males, site: thyroid gland, lesion: c-cell adenoma + c-cell carcinoma, bilateral + c-cell carcinoma, dosed 104 weeks, study length 105 weeks",675 mg/kg/day
same,TD50,"strain Fischer 344, males, site: thyroid gland, lesion: c-cell carcinoma, bilateral + c-cell carcinoma, dosed 104 weeks, study length 105 weeks",1920 mg/kg/day
same,TD50,"strain Fischer 344, males, site: thyroid gland, lesion: follicular-cell adenoma + follicular-cell carcinoma, dosed 12 weeks, study length 103 weeks",82.6 mg/kg/day
same,TD50,"strain Fischer 344, males, site: thyroid gland, lesion: follicular-cell adenoma + follicular-cell carcinoma, dosed 104 weeks, study length 105 weeks",629 mg/kg/day
same,TD50,"strain Fischer 344, males, site: thyroid gland, lesion: follicular-cell adenoma, dosed 12 weeks, study length 103 weeks",132 mg/kg/day
same,TD50,"strain Fischer 344, males, site: thyroid gland, lesion: follicular-cell carcinoma, dosed 104 weeks, study length 105 weeks",1110 mg/kg/day
same,TD50,"strain Fischer 344, males, site: tongue, lesion: squamous-cell papilloma, dosed 12 weeks, study length 103 weeks",30.8 mg/kg/day
same,TD50,"strain Fischer 344, males, site: tongue, lesion: squamous-cell papilloma, dosed 104 weeks, study length 105 weeks",500 mg/kg/day
same,TD50,"strain Fischer 344, males, site: urinary bladder, lesion: transitional-cell carcinoma + transitional-cell papilloma, dosed 12 weeks, study length 103 weeks",223 mg/kg/day
same,TD50,"strain Fischer 344, males, site: urinary bladder, lesion: transitional-cell carcinoma + transitional-cell papilloma, dosed 104 weeks, study length 105 weeks",2320 mg/kg/day
same,TD50,"strain Sprague-Dawley Spartan, females, site: any site (literature study), lesion: several types, types named in the paper, dosed 104 weeks, study length 104 weeks",1730 mg/kg/day (inactive)
same,carcinogen call,"strain Sprague-Dawley Spartan, females, site: liver, lesion: hepatocellular carcinoma, dosed 104 weeks, study length 104 weeks",negative (inactive)
same,TD50,"strain Sprague-Dawley Spartan, females, site: liver, lesion: hepatocellular hyperplastic nodule, dosed 104 weeks, study length 104 weeks",2550 mg/kg/day (inactive)
same,carcinogen call,"strain Sprague-Dawley Spartan, males, site: any site (literature study), lesion: several types, types named in the paper, dosed 104 weeks, study length 104 weeks",negative (inactive)
same,carcinogen call,"strain Sprague-Dawley Spartan, males, site: liver, lesion: hepatocellular carcinoma, dosed 104 weeks, study length 104 weeks",negative (inactive)
same,carcinogen call,"strain Sprague-Dawley Spartan, males, site: liver, lesion: hepatocellular hyperplastic nodule, dosed 104 weeks, study length 104 weeks",negative (inactive)
